Test system: rabbit skeletal myofibrils (fast skeletal myofibrils)
Test: Activation of fast skeletal myofibrils (PUMA assay, PK/LDH-coupled ATPase at pCa25)
Assay type: biochemical
In short: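 Detergent-washed rabbit psoas myofibrils (~90% fast fibres, calcium-regulated) assayed at calcium giving 25% of maximal ATPase rate (pCa25). ADP turnover coupled via pyruvate kinase/lactate dehydrogenase to NADH oxidation, read at 340 nm. Buffer 12 mM PIPES, 2 mM MgCl2, 1 mM DTT, pH 6.8; AC1.4 values derived.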

[1] = median AC1.4 class, procedure of Example 39
[2] = median AC1.4 reported as class, procedure of Example 39
[3] = AC1.4 determined according to the procedure of Example 39, reported as class symbols

SMILES	Mean AC1.4 [2]	Mean AC1.4 [3]	further results
CC(C)(Nc1ccc(-c2cc(C(N)=O)ccc2F)nn1)c1ncccc1F [4-fluoro-3-(6-{[1-(3-fluoro(2-pyridyl))-isopropyl]amino}pyridazin-3-yl)benzamide]	–	–	Mean AC1.4 [1]: B (B=1-10 uM)
CC(C)(Nc1ccc(-c2cc(C(N)=O)ccc2F)nn1)c1ccc(F)cc1 [4-fluoro-3-(6-{[1-(4-fluorophenyl)-isopropyl]amino}pyridazin-3-yl)benzamide]	–	–	Mean AC1.4 [1]: A (A=<1 uM)
NC(=O)c1ccc(F)c(-c2ccc(NC[C@]3(c4ncccc4F)C[C@H](F)C3)nn2)c1O [4-fluoro-3-[6-({[3-fluoro-1-(3-fluoro(2-pyridyl))cyclobutyl]methyl}ami-no)pyridazin-3-yl]-2-hydroxybenzamide]	A (A=<1 uM)	–	–
N#Cc1ccc(F)c(-c2ccc(NC[C@]3(c4ncccc4F)C[C@H](F)C3)nn2)c1 [4-fluoro-3-[6-({[3-fluoro-1-(3-fluoro(2-pyridyl))cyclobutyl]methyl}ami-no)pyridazin-3-yl]benzenecarbonitrile]	–	–	Mean AC1.4 [1]: B (B=1-10 uM)
O=C(O)c1ccc(F)c(-c2ccc(NC[C@]3(c4ncccc4F)C[C@H](F)C3)nn2)c1 [4-fluoro-3-[6-({[3-fluoro-1-(3-fluoro(2-pyridyl))cyclobutyl]methyl}ami-no)pyridazin-3-yl]benzoic acid]	–	–	Mean AC1.4 [1]: A (A=<1 uM)
Cc1cc(NCC2(c3ncccc3F)CCC2)nnc1-c1cc(C(N)=O)ccc1F [4-fluoro-3-[6-({[(3-fluoro(2-pyridyl))cyclobutyl]methyl}ami-no)-4-methylpyridazin-3-yl]benzamide]	C (C=10-20 uM)	–	–
NC(=O)c1ccc(F)c(-c2ccc(NCC3(c4ncccc4F)CCC3)nn2)c1O [4-fluoro-3-[6-({[(3-fluoro(2-pyridyl))cyclobutyl]methyl}ami-no)pyridazin-3-yl]-2-hydroxybenzamide]	A (A=<1 uM)	–	–
NC(=O)c1cc(-c2ccc(NC[C@]3(c4ncccc4F)C[C@H](F)C3)nn2)c(F)cc1O [4-fluoro-5-[6-({[3-fluoro-1-(3-fluoro(2-pyridyl))cyclobutyl]methyl}ami-no)pyridazin-3-yl]-2-hydroxybenzamide]	A (A=<1 uM)	–	–
NC(=O)c1cc(-c2ccc(NCC3(c4ncccc4F)CCC3)nn2)c(F)cc1O [4-fluoro-5-[6-({[(3-fluoro(2-pyridyl))cyclobutyl]methyl}ami-no)pyridazin-3-yl]-2-hydroxybenzamide]	A (A=<1 uM)	–	–
CC(C)(Nc1ccc(-c2ccc(C(N)=O)cc2)nn1)c1ccccc1 [4-{6-[(1-methyl-1-phenylethyl)amino]pyridazin-3-yl}benzamide]	–	–	Mean AC1.4 [1]: C (C=10-20 uM)
Cn1cc(NC(=O)c2ccc(NCC3(c4ncccc4F)CCC3)nn2)nc1C(N)=O [4-{[6-({[(3-fluoro(2-pyridyl))cyclobutyl]methyl}ami-no)pyridazin-3-yl]carbonylamino}-1-methylimidazole-2-carboxamide]	D (D=>20 uM)	–	–
CC(C)(CNc1ccc(-c2cncc(C#N)c2)nn1)c1ccccc1Cl [5-(6-{[2-(2-chlorophenyl)-2-methylpropyl]amino}pyridazin-3-yl)pyridine-3-carbonitrile]	–	B (B=1-10 uM)	–
CC(C)(CNc1ccc(-c2cncc(C(N)=O)c2)nn1)c1ccccc1Cl [5-(6-{[2-(2-chlorophenyl)-2-methylpropyl]amino}pyridazin-3-yl)pyridine-3-carboxamide]	–	B (B=1-10 uM)	–
CC(C)(CNc1ccc(-c2ccc3[nH]c(O)nc3c2)nn1)c1ncccc1F [5-(6-{[2-(3-fluoro(2-pyridyl))-2-methylpropyl]amino}pyridazin-3-yl)benzimidazol-2-ol]	–	A (A=<1 uM)	–
CC(C)(CNc1ccc(-c2n[nH]c(=O)o2)nn1)c1ccc(F)cc1 [5-(6-{[2-(4-fluorophenyl)-2-methylpropyl]amino}pyridazin-3-yl)-1,3,4-oxadiazolin-2-one]	–	C (C=10-20 uM)	–
CC(C)(CNc1ccc(-c2ccc3[nH]nc(C#N)c3c2)nn1)c1ccc(F)cc1 [5-(6-{[2-(4-fluorophenyl)-2-methylpropyl]amino}pyridazin-3-yl)-1H-indazole-3-carbonitrile]	–	D (D=>20 uM)	–
CC(C)(CNc1ccc(-c2ccc3[nH]nc(C(N)=O)c3c2)nn1)c1ccc(F)cc1 [5-(6-{[2-(4-fluorophenyl)-2-methylpropyl]amino}pyridazin-3-yl)-1H-indazole-3-carboxamide]	–	A (A=<1 uM)	–
CC(C)(CNc1ccc(-c2ccc3[nH]nc(C(=N)N)c3c2)nn1)c1ccc(F)cc1 [5-(6-{[2-(4-fluorophenyl)-2-methylpropyl]amino}pyridazin-3-yl)-1H-indazole-3-carboxamidine]	–	B (B=1-10 uM)	–
CC(C)(CNc1ccc(-c2cc(C(N)=O)c3[nH]ncc3c2)nn1)c1ccc(F)cc1 [5-(6-{[2-(4-fluorophenyl)-2-methylpropyl]amino}pyridazin-3-yl)-1H-indazole-7-carboxamide]	–	B (B=1-10 uM)	–

SMILES	Mean AC1.4 [2]	Mean AC1.4 [3]	further results
CC(C)(CNc1ccc(-c2ccc(C#N)nc2)nn1)c1ccc(F)cc1 [5-(6-{[2-(4-fluorophenyl)-2-methylpropyl]amino}pyridazin-3-yl)pyridine-2-carbonitrile]	–	C (C=10-20 uM)	–
CC(C)(CNc1ccc(-c2ccc(C(N)=O)nc2)nn1)c1ccc(F)cc1 [5-(6-{[2-(4-fluorophenyl)-2-methylpropyl]amino}pyridazin-3-yl)pyridine-2-carboxamide]	–	B (B=1-10 uM)	–
CC(C)(CNc1ccc(-c2cncc(C#N)c2)nn1)c1ccc(F)cc1 [5-(6-{[2-(4-fluorophenyl)-2-methylpropyl]amino}pyridazin-3-yl)pyridine-3-carbonitrile]	–	B (B=1-10 uM)	–
CC(C)(CNc1ccc(-c2cncc(C(N)=O)c2)nn1)c1ccc(F)cc1 [5-(6-{[2-(4-fluorophenyl)-2-methylpropyl]amino}pyridazin-3-yl)pyridine-3-carboxamide]	–	B (B=1-10 uM)	–
NC(=O)c1cc(-c2ccc(NC3(c4ncccc4F)CCC3)nn2)ccc1O [5-(6-{[(3-fluoro(2-pyridyl))cyclobutyl]amino}pyr-idazin-3-yl)-2-hydroxybenzamide]	–	–	Mean AC1.4 [1]: B (B=1-10 uM)
NC(=O)c1ccc(-c2ccc(NC3(c4ncccc4F)CCC3)nn2)s1 [5-(6-{[(3-fluoro-2-pyridyl)cyclobutyl]amino}pyr-idazin-3-yl)thiophene-2-carboxamide]	–	–	Mean AC1.4 [1]: B (B=1-10 uM)
O=C(O)c1ccc(-c2ccc(NC3(c4ncccc4F)CCC3)nn2)s1 [5-(6-{[(3-fluoro-2-pyridyl)cyclobutyl]amino}pyr-idazin-3-yl)thiophene-2-carboxylic acid]	–	–	Mean AC1.4 [1]: D (D=>20 uM)
NC(=O)c1ccc(-c2ccc(NC3(c4ccc(F)cc4)CCC3)nn2)s1 [5-(6-{[(4-fluorophenyl)cyclobutyl]ami-no}pyridazin-3-yl)thiophene-2-carboxamide]	–	–	Mean AC1.4 [1]: B (B=1-10 uM)
NC(=O)c1cc(-c2ccc(NC[C@]3(c4ncccc4F)C[C@H](F)C3)nn2)ccc1O [5-[6-({[3-fluoro-1-(3-fluoro(2-pyridyl))cyclobutyl]methyl}ami-no)pyridazin-3-yl]-2-hydroxybenzamide]	A (A=<1 uM)	–	–
O=C(O)c1cc(-c2ccc(NC[C@]3(c4ncccc4F)C[C@H](F)C3)nn2)ccc1O [5-[6-({[3-fluoro-1-(3-fluoro(2-pyridyl))cyclobutyl]methyl}ami-no)pyridazin-3-yl]-2-hydroxybenzoic acid]	B (B=1-10 uM)	–	–
COc1ccc(-c2ccc(NC[C@]3(c4ncccc4F)C[C@H](F)C3)nn2)cc1C(N)=O [5-[6-({[3-fluoro-1-(3-fluoro(2-pyridyl))cyclobutyl]methyl}ami-no)pyridazin-3-yl]-2-methoxybenzamide]	B (B=1-10 uM)	–	–
NC(=O)c1cc2cc(-c3ccc(NC[C@]4(c5ncccc5F)C[C@H](F)C4)nn3)ccc2[nH]1 [5-[6-({[3-fluoro-1-(3-fluoro(2-pyridyl))cyclobutyl]methyl}ami-no)pyridazin-3-yl]indole-2-carboxamide]	A (A=<1 uM)	–	–
O=C(O)c1cc2cc(-c3ccc(NC[C@]4(c5ncccc5F)C[C@H](F)C4)nn3)ccc2[nH]1 [5-[6-({[3-fluoro-1-(3-fluoro(2-pyridyl))cyclobutyl]methyl}ami-no)pyridazin-3-yl]indole-2-carboxylic acid]	B (B=1-10 uM)	–	–
O=C1NCc2cc(-c3ccc(NC[C@]4(c5ncccc5F)C[C@H](F)C4)nn3)ccc21 [5-[6-({[3-fluoro-1-(3-fluoro(2-pyridyl))cyclobutyl]methyl}ami-no)pyridazin-3-yl]isoindolin-1-one]	C (C=10-20 uM)	–	–
COc1ncc(-c2ccc(NCC3(c4ncccc4F)CCC3)nn2)cc1C#N [5-[6-({[(3-fluoro(2-pyridyl))cyclobutyl]methyl}ami-no)pyridazin-3-yl]-2-methoxypyridine-3-carbonitrile]	D (D=>20 uM)	–	–
COc1ncc(-c2ccc(NCC3(c4ncccc4F)CCC3)nn2)cc1C(N)=O [5-[6-({[(3-fluoro(2-pyridyl))cyclobutyl]methyl}ami-no)pyridazin-3-yl]-2-methoxypyridine-3-carboxamide]	C (C=10-20 uM)	–	–
NC(=O)c1cc(-c2ccc(NCC3(c4ncccc4F)CCC3)nn2)c[nH]c1=O [5-[6-({[(3-fluoro(2-pyridyl))cyclobutyl]methyl}ami-no)pyridazin-3-yl]-2-oxohydropyridine-3-carboxamide]	C (C=10-20 uM)	–	–
O=C(O)c1cc(-c2ccc(NCC3(c4ncccc4F)CCC3)nn2)c[nH]c1=O [5-[6-({[(3-fluoro(2-pyridyl))cyclobutyl]methyl}ami-no)pyridazin-3-yl]-2-oxohydropyridine-3-carboxylic acid]	D (D=>20 uM)	–	–
NC(=O)c1nnc(-c2ccc(NCC3(c4ncccc4F)CCC3)nn2)o1 [5-[6-({[(3-fluoro-2-pyridyl)cyclobutyl]methyl}ami-no)pyridazin-3-yl]-1,3,4-oxadiazole-2-carboxamide]	–	–	Mean AC1.4 [1]: C (C=10-20 uM)
